Data from patent US6914045B2, “Glycopeptide antibiotics” (Wyeth Holdings Corporation, priority 2001, dated 2005).
Converted amounts (≈) assume the structure as drawn. Read-outs that look alike come from different tables or passages of the source.

Columns and labels:
[1] = test system: Escherichia coli; assay: in vitro antibacterial evaluation, MIC by broth dilution; assay type: cell-based; details: 18 hours at 35° C.
How it was run: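 Step 1: dilute antibiotic across 64-0.06 μg/mL in Muller-Hinton II […]. Step 2: inoculate at 5×10^5 CFU/mL.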

[2] = test system: Staphylococcus sp.; assay: as above; assay type: cell-based; details: broth dilution, 18 hours at 35° C.
How it was run: (§1)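 MIC, the lowest antibiotic concentration preventing growth, was read across 64-0.06 μg/mL with 5×10^5 CFU/mL inoculum. Method followed NCCLS M7-A2 broth dilution using Mueller-Hinton II; Gram-positive strains covered recent methicillin-, penicillin- and/or vancomycin-resistant clinical isolates.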

[3] = test system: Enterococcus sp.; assay: as above; assay type: cell-based; details: broth dilution, 18 hours at 35° C.
How it was run: as §1

[4] = test system: Streptococcus sp.; assay: as above; assay type: cell-based; details: broth dilution, 18 hours at 35° C.
How it was run: as §1

[5] = test system: Gram-positive bacteria comprised of Staphylococcus sp., Streptococcus sp. and Enterococcus sp.; assay: in vitro antibacterial evaluation, MIC by broth dilution (strain not given); assay type: cell-based
Experimental: Methods for in vitro Antibacterial Evaluation (Table 1)
The minimum inhibitory concentration (MIC), the lowest concentration of the antibiotic which inhibits growth of the test organism, is determined by the broth dilution method using Muller-Hinton II […] (Baltimore Biological Laboratories) following the recommendations of the National Committee for Clinical Laboratory Standards [Methods for dilution antimicrobial susceptibility tests for bacteria that grow aerobically, approved standard M7-A2, National Committee for Clinical Laboratory Standards, Villanova, Pa.].
An inoculum level of 5×10^5 CFU/mL, and a range of antibiotic concentrations (64-0.06 μg/mL) is used. […] The test organisms include a spectrum of Gram-positive bacteria comprised of Staphylococcus sp., Streptococcus sp. and Enterococcus sp. These organisms include recent clinical isolates that are resistant to methicillin, penicillin and/or vancomycin.

[6] = test system: Staphylococcus aureus-SMITH (GC 4543); assay: acute lethal infection in mice; assay type: in vivo; details: Staphylococcus, read-out: median effective dose (ED50), Staphylococcus aureus-SMITH (GC 4543)
How it was run: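 Protocol: bacteria suspended in trypticase soy broth or hog gastric mucin injected ip into female CD-1 mice at a level killing untreated controls in 24-48 hr; compound given iv in saline or 5% dextrose 30 min post-challenge; five mice per dose; ED50 derived from pooled 7 day survival of three runs.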

CC(c1ccccc1)[C@@H]1NC(=O)CNC(=O)[C@H](CO)NC(=O)[C@H](C(O)C2CNC(=N)N2)NC(=O)[C@H](C(O)C2CNC(=N)N2)NC(=O)[C@H](Cc2ccc(O)cc2)NC1=O (stereo partly drawn) [Example 280b, Cyclo[glycyl-β-methylphenylalanyltyrosyl-3-(2-iminoimidazolidin-4-yl)seryl-3-(2-iminoimidazolidin-4-yl)serylseryl]]
MIC ([1]; ATCC25922, Escherichia coli (ATCC 25922), read-out: MIC, Escherichia coli (ATCC 25922)): 32 µg/mL (≈ 39.6 µM)
MIC ([1]; Escherichia coli (GC 4559), read-out: MIC, Escherichia coli (GC 4559)): 16 µg/mL (≈ 19.8 µM)
MIC ([1]; Escherichia coli (GC 4560), read-out: MIC, Escherichia coli (GC 4560)): 32 µg/mL (≈ 39.6 µM)
MIC ([2]; Staphylococcus, read-out: MIC Coagulase Negative Staphylococcus (GC 4547)): 32 µg/mL (≈ 39.6 µM)
MIC ([2]; Staphylococcus, read-out: MIC Coagulase Negative Staphylococcus (GC 4548)): 128 µg/mL (≈ 158 µM)
MIC ([2]; Staphylococcus, read-out: MIC Coagulase Negative Staphylococcus (GC 4549)): 32 µg/mL (≈ 39.6 µM)
MIC ([2]; Staphylococcus, read-out: MIC Coagulase Negative Staphylococcus (GC 4551)): 128 µg/mL (≈ 158 µM)
MIC ([2]; Staphylococcus, read-out: MIC Coagulase Negative Staphylococcus (GC 6257)): 32 µg/mL (≈ 39.6 µM)
MIC ([2]; Staphylococcus, read-out: MIC Staphylococcus aureus-SMITH (GC 4543)): 64 µg/mL (≈ 79.1 µM)
MIC ([2]; read-out: MIC Staphylococcus aureus (ATCC 29213)): 128 µg/mL (≈ 158 µM)
MIC ([2]; read-out: MIC Staphylococcus aureus (GC 1131)): > 128 µg/mL
MIC ([2]; read-out: MIC Staphylococcus aureus (GC 3051)): 128 µg/mL (≈ 158 µM)
MIC ([2]; read-out: MIC Staphylococcus aureus (GC 3053)): > 128 µg/mL
MIC ([2]; read-out: MIC Staphylococcus aureus (GC 4541)): 128 µg/mL (≈ 158 µM)
MIC ([2]; read-out: MIC Staphylococcus aureus (GC 4542)): 128 µg/mL (≈ 158 µM)
MIC ([2]; read-out: MIC Staphylococcus aureus (GC 4544)): 128 µg/mL (≈ 158 µM)
MIC ([2]; read-out: MIC Staphylococcus aureus (GC 4545)): 64 µg/mL (≈ 79.1 µM)
MIC ([2]; read-out: MIC Staphylococcus haemolyticus (GC 4546)): 32 µg/mL (≈ 39.6 µM)
MIC Staphylococcus aureus (ATCC 29213) ([2]; strain ATCC 29213): 128 µg/mL (≈ 158 µM)
MIC Staphylococcus aureus (GC 1131) ([2]; strain GC 1131): >128 µg/mL
MIC Staphylococcus aureus (GC 3051) ([2]; strain GC 3051): 128 µg/mL (≈ 158 µM)
MIC Staphylococcus aureus (GC 3053) ([2]; strain GC 3053): >128 µg/mL
MIC Staphylococcus aureus (GC 4541) ([2]; strain GC 4541): 128 µg/mL (≈ 158 µM)
MIC Staphylococcus aureus (GC 4542) ([2]; strain GC 4542): 128 µg/mL (≈ 158 µM)
MIC Staphylococcus aureus (GC 4544) ([2]; strain GC 4544): 128 µg/mL (≈ 158 µM)
MIC Staphylococcus aureus (GC 4545) ([2]; strain GC 4545): 64 µg/mL (≈ 79.1 µM)
MIC Staphylococcus haemolyticus (GC 4546) ([2]; strain GC 4546): 32 µg/mL (≈ 39.6 µM)
MIC Coagulase Negative Staphylococcus (GC 4547) ([2]; strain GC 4547): 32 µg/mL (≈ 39.6 µM)
MIC Coagulase Negative Staphylococcus (GC 4548) ([2]; strain GC 4548): 128 µg/mL (≈ 158 µM)
MIC Coagulase Negative Staphylococcus (GC 4549) ([2]; strain GC 4549): 32 µg/mL (≈ 39.6 µM)
MIC Coagulase Negative Staphylococcus (GC 4551) ([2]; strain GC 4551): 128 µg/mL (≈ 158 µM)
MIC Coagulase Negative Staphylococcus (GC 6257) ([2]; strain GC 6257): 32 µg/mL (≈ 39.6 µM)
MIC Staphylococcus aureus-SMITH (GC 4543) ([2]; strain SMITH GC 4543): 64 µg/mL (≈ 79.1 µM)
MIC ([3]; Enterococcus avium (GC 4558), read-out: MIC, Enterococcus avium (GC 4558)): 128 µg/mL (≈ 158 µM)
MIC ([3]; Enterococcus faecalis (ATCC 29212), read-out: MIC, Enterococcus faecalis (ATCC 29212)): > 128 µg/mL
MIC ([3]; Enterococcus faecalis (GC 4553), read-out: MIC, Enterococcus faecalis (GC 4553)): > 128 µg/mL
MIC ([3]; Enterococcus faecalis (GC 4554), read-out: MIC, Enterococcus faecalis (GC 4554)): > 128 µg/mL
MIC ([3]; Enterococcus faecalis (GC 6189), read-out: MIC, Enterococcus faecalis (GC 6189)): > 128 µg/mL
MIC ([3]; Enterococcus faecium (GC 2243), read-out: MIC, Enterococcus faecium (GC 2243)): 128 µg/mL (≈ 158 µM)
MIC ([3]; Enterococcus faecium (GC 4556), read-out: MIC, Enterococcus faecium (GC 4556)): > 128 µg/mL
MIC ([3]; Enterococcus faecium (GC 4557), read-out: MIC, Enterococcus faecium (GC 4557)): 64 µg/mL (≈ 79.1 µM)
MIC ([3]; strain ATCC 29212, read-out: MIC Enterococcus faecalis (ATCC 29212)): > 128 µg/mL
MIC ([3]; strain GC 2242, read-out: MIC Enterococcus faecalis (GC 2242)): > 128 µg/mL
MIC ([3]; strain GC 2243, read-out: MIC Enterococcus faecium (GC 2243)): 128 µg/mL (≈ 158 µM)
MIC ([3]; strain GC 2691, read-out: MIC Enterococcus faecalis (GC 2691)): > 128 µg/mL
MIC ([3]; strain GC 3059, read-out: MIC Enterococcus faecalis (GC 3059)): > 128 µg/mL
MIC ([3]; strain GC 4552, read-out: MIC Enterococcus faecalis (GC 4552)): > 128 µg/mL
MIC ([3]; strain GC 4553, read-out: MIC Enterococcus faecalis (GC 4553)): > 128 µg/mL
MIC ([3]; strain GC 4554, read-out: MIC Enterococcus faecalis (GC 4554)): > 128 µg/mL
MIC ([3]; strain GC 4556, read-out: MIC Enterococcus faecium (GC 4556)): > 128 µg/mL
MIC ([3]; strain GC 4557, read-out: MIC Enterococcus faecium (GC 4557)): 64 µg/mL (≈ 79.1 µM)
MIC ([3]; strain GC 4558, read-out: MIC Enterococcus avium (GC 4558)): 128 µg/mL (≈ 158 µM)
MIC ([3]; strain GC 6189, read-out: MIC Enterococcus faecalis (GC 6189)): > 128 µg/mL
MIC ([4]; strain ATCC 6301, read-out: MIC Streptococcus pneumoniae (ATCC 6301)): 32 µg/mL (≈ 39.6 µM)
MIC ([4]; strain GC 1894, read-out: MIC Streptococcus pneumoniae (GC 1894)): 64 µg/mL (≈ 79.1 µM)
MIC ([4]; strain GC 4563, read-out: MIC Streptococcus pyogenes (GC 4563)): 64 µg/mL (≈ 79.1 µM)
MIC ([4]; strain GC 4564, read-out: MIC Streptococcus agalactiae (GC 4564)): 128 µg/mL (≈ 158 µM)
MIC ([4]; strain GC 4565, read-out: MIC Streptococcus pneumoniae (GC 4565)): 128 µg/mL (≈ 158 µM)
MIC ([5]; Table 2 section r2574-r2600, column 1, 18 hours at 35° C., read-out: MIC, strain of column 1): 128 µg/mL (≈ 158 µM)
MIC ([5]; Table 2 section r2574-r2600, column 2, 18 hours at 35° C., read-out: MIC, strain of column 2): 64 µg/mL (≈ 79.1 µM)
MIC ([5]; Table 2 section r2574-r2600, column 3, 18 hours at 35° C., read-out: MIC, strain not given): 128 µg/mL (≈ 158 µM)
MIC ([5]; Table 2 section r2574-r2600, column 5, 18 hours at 35° C., read-out: MIC, strain of column 5): 64 µg/mL (≈ 79.1 µM)
MIC ([5]; Table 2 section r2574-r2600, column 7, 18 hours at 35° C., read-out: MIC, strain not given): > 128 µg/mL
MIC ([5]; Table 2 section r2574-r2600, column 9, 18 hours at 35° C., read-out: MIC, strain of column 9): > 128 µg/mL
MIC ([5]; Table 2 section r2574-r2600, column 10, 18 hours at 35° C., read-out: MIC, strain of column 10): > 128 µg/mL
ED50 [6]: > 8 mg/kg
